“Also recorded” adds a separate entry of the source.
Legend:
[1] = system: PGC-1α, NRF-1 and UCP3 genes; assay: Expression of mitochondrial regulatory and component genes; type: cell-based
SIRT1 = molecular target: T1, SIRT1 (Homo sapiens, UniProt Q96EB6); assay: SIRT1 activity, cell-free fluorimetric deacetylation assay; type: biochemical; details: cell-free system
T1 construct: purchased ENZO Life Sciences International, Inc. BML-AK555
T1 sequence (Q96EB6 1-747): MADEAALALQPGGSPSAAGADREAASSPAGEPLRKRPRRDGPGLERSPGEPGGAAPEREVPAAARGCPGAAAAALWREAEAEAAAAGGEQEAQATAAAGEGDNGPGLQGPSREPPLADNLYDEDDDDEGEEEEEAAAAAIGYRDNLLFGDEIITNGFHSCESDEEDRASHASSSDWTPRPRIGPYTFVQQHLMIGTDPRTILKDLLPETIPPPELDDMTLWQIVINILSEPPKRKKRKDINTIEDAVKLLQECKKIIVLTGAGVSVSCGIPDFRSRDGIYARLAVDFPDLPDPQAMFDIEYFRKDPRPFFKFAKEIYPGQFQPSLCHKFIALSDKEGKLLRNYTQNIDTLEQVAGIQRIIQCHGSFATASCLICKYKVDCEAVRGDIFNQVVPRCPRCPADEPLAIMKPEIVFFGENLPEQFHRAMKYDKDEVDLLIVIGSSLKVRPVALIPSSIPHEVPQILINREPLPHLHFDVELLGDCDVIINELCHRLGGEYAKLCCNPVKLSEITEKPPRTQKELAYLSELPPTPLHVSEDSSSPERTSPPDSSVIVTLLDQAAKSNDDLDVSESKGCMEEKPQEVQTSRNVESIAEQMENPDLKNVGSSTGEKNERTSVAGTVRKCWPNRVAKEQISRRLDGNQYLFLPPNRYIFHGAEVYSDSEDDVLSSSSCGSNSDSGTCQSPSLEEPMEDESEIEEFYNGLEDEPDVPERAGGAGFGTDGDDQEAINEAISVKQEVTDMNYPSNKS
Procedure: SIRT1 activity was measured by using the SIRT1 Fluorimetric Drug Discovery Kit (BML-AK555, ENZO Life Sciences International, Inc. PA, USA). In this assay, SIRT1 activity is assessed by the degree of deacetylation of a standardized substrate containing an acetylated lysine side chain. The substrate utilized is a peptide containing amino acids 379-382 of human p53 (Arg-His-Lys-Lys[Ac]), an established target of SIRT1 activity; SIRT1 activity is directly proportional to the degree of deacetylation of Lys-382. Samples were incubated with peptide substrate (25 μM), and NAD^+ (500 μM) in a phosphate-buffered saline solution at 37° C. on a horizontal shaker for 45 minutes. The reaction was stopped with the addition of 2 mM nicotinamide and a developing solution that binds to the deacetylated lysine to form a fluorophore. Following 10 minutes incubation at 37° C., fluorescence was read in a plate-reading fluorometer at an excitation wavelength of 360 nm and an emission wavelength of 450 nm. […] A standard curve was constructed using deacetylated substrate (0-10 μM).

[2] = system: myotube mitochondrial biogenesis; assay: Myotube mitochondrial biogenesis (NAO binding), Example 1; type: cell-based; details: assessed fluorometrically via NAO binding
Procedure: (§1) We next investigated the role of intact leucine (0-0.5 mM) vs. its metabolites, α-ketoisocaproic acid (KIC) (0-0.5 mM) and HMB (0-50 μM). […] Both leucine and HMB increased myotube mitochondrial biogenesis (assessed fluorometrically via NAO binding) by ˜50%, (p<0.005, FIG. 3).

c2c12 myotubes [3] = assay: Fatty acid oxidation (FAO) in c2c12 myotubes, Example 1; type: cell-based; details: preserved in presence and absence of 20 nM rapamycin
Procedure: We have shown that catabolic systems are also stimulated to fuel this process, resulting in increased mitochondrial biogenesis and fatty acid oxidation (FAO). To address the mechanism of this effect, we first determined its mTOR-dependence by assessing leucine stimulation of FAO in the presence and absence of 20 nM rapamycin; although rapamycin inhibited FAO in c2c12 myotubes, the degree of leucine stimulation was preserved (˜50%, p<0.03; FIG. 1).
as §1

Sirt3 = molecular target: T2, Sirt3 (Mus musculus, UniProt Q8R104); assay: Sirt3 activity in mitochondrial protein of treated 3T3-L1 adipocytes; type: cell-based; details: 4 hours, leucine 0.5 mM, HMB 5 uM, resveratrol 200 nM
T2 construct: endogenous in cells; host or cells: 3T3-L1 adipocytes (mitochondrial protein)
T2 sequence (Q8R104 1-334): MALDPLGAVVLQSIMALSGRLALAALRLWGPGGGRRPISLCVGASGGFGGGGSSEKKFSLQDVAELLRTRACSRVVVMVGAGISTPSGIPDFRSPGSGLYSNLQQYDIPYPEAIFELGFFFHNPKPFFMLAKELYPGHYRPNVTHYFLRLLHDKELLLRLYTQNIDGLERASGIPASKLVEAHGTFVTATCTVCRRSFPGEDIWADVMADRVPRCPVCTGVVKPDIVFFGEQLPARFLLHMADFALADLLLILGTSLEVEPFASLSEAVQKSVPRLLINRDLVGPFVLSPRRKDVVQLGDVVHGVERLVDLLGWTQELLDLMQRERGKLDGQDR

Adipocytes (3T3-L1) = assay: Fatty acid oxidation (3H-palmitate) in 3T3-L1 adipocytes; type: cell-based; details: high (25 mM) glucose, 4 hours; leucine 0.5 mM, HMB 5 uM, resveratrol 200 nM; vs. control
Procedure: High glucose medium reduced fatty acid oxidation by 46% (p<0.05).
Fatty acid oxidation was measured using ^3H-labeled palmitate oxidation, with the ^3H label trapped as water as a result of the fat oxidation. The ^3H was then measured via scintillation counter.

[4] = system: adipocytes (3T3-L1) and myotubes (C2C12); assay: Fatty acid oxidation screening and dose-response, cell type both or not stated; type: cell-based; details: for concentrations that exert no effect (dose-response curves; sub-therapeutic dose): highest dose that exerted no effect on fatty acid oxidation; for synergy with HMB or leucine in stimulating fatty acid oxidation: compound at its no-effect concentration with HMB 5 μM or leucine 0.5 mM; for independent activity in stimulating fatty acid oxidation (dose-response): compound alone
c2c12 myotubes [5] = assay: Glucose utilization (extracellular acidification) in C2C12 myotubes; type: cell-based; details: HMB 5 μM, leucine 0.5 mM, resveratrol 200 nM, other components at their no-effect concentration
Procedure: All compounds were tested for potential to independently or synergistically modulate sirtuin signaling either by direct stimulation or indirect via upstream signaling via AMPK. A key outcome of Sirt1 signaling is stimulation of PGC1-α and subsequent stimulation of mitochondrial biogenesis and fatty acid oxidation. Accordingly, fatty acid oxidation, measured as palmitate-induced oxygen consumption as described below, was utilized as a sensitive first level of screening for aerobic mitochondrial metabolism. A dose-response curve for fatty acid oxidation was established for each compound studied, and a “sub-therapeutic dose” was defined as the highest dose that exerted no effect in this system. […] Following assessment of fatty acid oxidation, Sirt1 activity, AMPK activity, mitochondrial biogenesis and glucose utilization (measured as glucose-induced extracellular acidification in the absence of fatty acids in the media) were assessed for lead combinations and appropriate controls. Glucose Utilization: In the absence of a fatty acid source and oxidative metabolism, glycolysis and subsequent lactate production results in extracellular acidification, which was also measured using a Seahorse Bioscience XF24 analyzer. […] Data for each sample were normalized to the pre-glucose injection baseline for that sample and expressed as % change from that baseline. […]

[6] = in vivo; cited from earlier work
[7] = Insulin tolerance test in db/db mice; type: in vivo
[8] = db/db mice
[9] = Plasma insulin, glucose and HOMAIR in db/db mice; type: in vivo
[10] = high dose metformin 300 mg/kg bw

Q: For `CC(C)C[C@H](N)C(=O)O` [leucine], which “expression of mitochondrial regulatory (PGC-1α and NRF-1) and component (UCP3) genes” value [1] is on record?
A: stimulated expression

Q: And the SIRT1 activity (SIRT1)?
A: significantly increased SIRT1 activity

Q: What about the “increase in myotube mitochondrial biogenesis” value [2] of the same compound?
A: ~50%

Q: What about the “leucine stimulation of FAO” value (c2c12 myotubes [3]) of the same compound?
A: ~50%

Q: What about the “increase in Sirt3 activity” value (Sirt3) of the same compound?
A: no significant independent effect; also recorded: no independent effects

Q: And the “increase in fatty acid oxidation, high glucose” value (Adipocytes (3T3-L1))?
A: 27%

Q: For `O=C(O)/C=C/c1ccc(O)c(O)c1` [Caffeic acid], which “concentrations that exert no effect (dose-response curves; sub-therapeutic dose)” value (“concentrations that exert no effect” below) [4] is on record?
A: ≤ 1000 nM

Q: With `OC[C@@H](O)[C@@H](O)[C@H](O)[C@@H](O)CO` [Sorbitol, reference compound] as the compound, how does the “synergy with HMB or leucine in stimulating fatty acid oxidation” value (“synergy with HMB or leucine” for short) [4] read?
A: no synergy

Q: For `Cn1c(=O)c2[nH]cnc2n(C)c1=O` [Theophylline, reference compound], which “concentrations that exert no effect” value [4] is on record?
A: below 1 μM

Q: Which results are given for `OC[C@@H](O)[C@@H](O[C@H]1O[C@H](CO)[C@@H](O)[C@H](O)[C@H]1O)[C@H](O)[C@@H](O)CO` [Maltitol, reference compound]?
A: synergy with HMB or leucine in stimulating fatty acid oxidation [4]: no synergy was noted; concentrations that exert no effect (dose-response curves; sub-therapeutic dose) [4]: ≤ 100 nM

Q: For `O=c1oc2c(O)c(O)cc3c(=O)oc4c(O)c(O)cc1c4c23` [Ellagic acid], which “independent activity in stimulating fatty acid oxidation (dose-response)” value [4] is on record?
A: little activity, even at high concentrations (50 μM)

Q: With Fucoxanthin as the compound, how does the “concentrations that exert no effect” value [4] read?
A: ≤ 100 nM

Q: For `O=C(O[C@@H]1Cc2c(O)cc(O)cc2O[C@@H]1c1cc(O)c(O)c(O)c1)c1cc(O)c(O)c(O)c1` [EGCG, epigallocatechin gallate], which “independent activity in stimulating fatty acid oxidation (dose-response)” value [4] is on record?
A: minimally active

Q: What about the “synergy with HMB or leucine” value [4] of the same compound?
A: do not detect synergistic effects

Q: What about the “increase in glucose utilization in myotubes (extracellular acidification response to glucose)” value (c2c12 myotubes [5]) of the same compound?
A: no independent effect

Q: For `CC(C)[C@H](N)C(=O)O` [valine, reference compound], which SIRT1 activity (SIRT1) is on record?
A: no significant effect

Q: With `CC(C)CC(=O)C(=O)O` [KIC, α-ketoisocaproic acid] as the compound, how does the SIRT1 activity (SIRT1) read?
A: significantly increased SIRT1 activity

Q: For `O[C@H]1[C@H](O)[C@@H](O)[C@H](O)[C@@H](O)[C@H]1O` [Myo-inositol, reference compound], which “synergy with HMB or leucine” value [4] is on record?
A: no synergy

Q: For `Cn1c(=O)c2c(ncn2C)n(C)c1=O` [Caffeine], which “plasma concentration observed following caffeine consumption” value [6] is on record?
A: 1000 to 10000 nM

Q: What does the source list for `CN(C)C(=N)N=C(N)N` [Metformin]?
A: decrease in blood glucose over the 30 minute linear portion of the insulin response curve ([7]; insulin 0.75 U/kg, standard metformin dose, or low / very low metformin blends): ~60 mg/dL; changes in blood glucose in response to the insulin challenge ([7]; low-dose or very low-dose of metformin alone): minimal changes; effects on body composition [8, 10]: no significant effects; effect on visceral fat mass ([8]; metformin at any dosage in the absence of HMB): not affected; reduction of plasma insulin ([9]; 2 weeks, high dose metformin 300 mg/kg bw (1.5 g/kg diet)): 27%; plasma insulin ([9]; 2 weeks, high dose metformin 300 mg/kg bw, control 62): 45 uU/mL; effect on plasma glucose [9, 10]: no significant effect; independent effects on any variable studied ([9]; low dose of metformin (150 mg/kg) and very low dose (50 mg/kg)): no significant independent effects

— US8623924B2, “Compositions and methods for modulating metabolic pathways” (Nusirt Sciences, Inc., priority 2011, dated 2014)
